This is an account of results in paper PMC3108608 (Frontiers in Pharmacology, 2011).

The subject of one experiment is COX-2 expression. Put plainly: Induction of COX-2 in IL-1β-stimulated A549 cells (Western blot). Conditions: Homo sapiens, 24 h, read-out: EC50 of inhibition of COX-2 induction. The format is cell-based. The procedure: (§1) Cells (4 × 10^6 cells) were resuspended in 50 μl PBS buffer pH 7.2, mixed with the same volume of 2 × SDS/PAGE sample loading buffer (20 mM Tris–HCl, pH 8, 2 mM EDTA, 5% (m v^−1) SDS, and 10% (v v^−1) β-mercaptoethanol), and boiled for 5 min at 95°C. Aliquots (20 μl) corresponding to equivalents of 0.8 × 10^6 cells were mixed with 4 μl glycerol/0.1% bromophenol blue (1:1, v v^−1), and proteins were separated by SDS-PAGE. After electroblotting to nitrocellulose membrane (GE Healthcare, Munich, Germany) and blocking with 5% BSA for 1 h at room temperature, membranes were washed and incubated with primary antibodies overnight at 4°C. The membranes were washed and incubated with a 1:1000 dilution of alkaline phosphatase-conjugated immunoglobulin G for 3 h at room temperature. After washing, proteins were visualized with nitro blue tetrazolium and 5-bromo-4-chloro-3-indolylphosphate.
(§2) Cells were harvested after 24 h, total cell lysates were prepared and analyzed for the induction of COX-2 (72 kDa), mPGES-1 (16 kDa) and cleaved PARP (89 kDa) using SDS-PAGE and Western blotting. β-Actin (45 kDa) was used as loading control. Data are representatives of two to three independent experiments.

The test system of a further experiment is mPGES-1 expression. In words: Induction of mPGES-1 in IL-1β-stimulated A549 cells (Western blot). The format is cell-based. Conditions: Homo sapiens, 24 h, read-out: EC50 of inhibition of mPGES-1 induction. The procedure: as §1, §2
In general terms: In western blotting, separated proteins are transferred to a membrane and probed.

The test system of experiment [1] is A549 lung carcinoma cells. Put plainly: Apoptosis of A549 cells monitored by cleavage of PARP. The format is cell-based. Conditions: Homo sapiens, A549, 24 h. The procedure:
as §1, §2

Experiment [2] relates to carrageenan-induced mouse paw edema. In words: Carrageenan-induced paw edema in mice. The class given is in vivo. Conditions: for ED50 paw edema formation: i.p., areas under the curves 2-6 h. As to the method:
Mice were divided into groups (n = 10 for each group) and lightly anesthetized with enflurane 4% mixed with O2, 0.5 l min^−1, N2O 0.5 l min^−1. Each group of animals received subplantar administration of saline (0.05 ml) or of λ-carrageenan type IV 1% (w v^−1, 0.05 ml) in saline. The paw was marked in order to immerge it always at the same extent in the measurement chamber. The volume was measured by using a hydroplethismometer, specially modified for small volumes (Ugo Basile, Milan, Italy), immediately before subplantar injection and 2, 4, and 6 h thereafter (Posadas et al., [2004]). The assessment of paw volume was performed always in double blind and by the same operator. The increase in paw volume was calculated by subtracting the initial paw volume (basal) to the paw volume measured at each time point.

The subject of experiment [3] is carrageenan-induced pleurisy. In words: Carrageenan-induced pleurisy in rats. The class given is in vivo, rat. As to conditions: 4 h after carrageenan; for PGE2 in exudate: vehicle 1.81 ± 0.16; for Inflammatory cells: vehicle 103.0 ± 15.4.
A further experiment has as its system A549 cells. In words: cells. As to conditions: Homo sapiens, A549, 24 h, read-out: EC50 of reduction of cell viability.
A further experiment has as its target 5-lipoxygenase (5-LO). Set-up: method as in Albert et al., 2002; Feisst et al., 2009. Conditions: neutrophils; ref Albert et al., 2002; Feisst et al., 2009; read-out: IC50 of leukotriene biosynthesis; cited from earlier work.
The test system of a further experiment is COX-1. Details: method as in Albert et al., 2002; Feisst et al., 2009. As to conditions: human platelets; ref Albert et al., 2002; Feisst et al., 2009; cited from earlier work.
The test system of the next experiment is COX-2. Set-up: method as in Albert et al., 2002; Feisst et al., 2009. As to conditions: monocytic Mono Mac 6 cells; ref Albert et al., 2002; Feisst et al., 2009; read-out: COX-2 activity (6-keto PGF1α synthesis), not affected up to; cited from earlier work.
For experiment [4], the system named is PGE2 formation in LPS-stimulated human whole blood. Put plainly: PGE2 formation in LPS-stimulated human whole blood. The class given is cell-based. As to conditions: controls: MK-886 30 μM, MD-52 6 μM, indomethacin 50 μM, celecoxib 20 μM; LPS 5 h.
Experiment [5] relates to 6-keto PGF1α formation in LPS-stimulated human whole blood. Put plainly: 6-keto PGF1α formation in LPS-stimulated human whole blood. The format is cell-based. As to conditions: MK-886 30 μM, MD-52 6 μM; LPS 5 h.
Experiment [6] relates to TXB2 formation in LPS-stimulated human whole blood. Put plainly: TXB2 formation in LPS-stimulated human whole blood. The class given is cell-based. As to conditions: MK-886 30 μM, MD-52 6 μM; LPS 5 h.
Another experiment has as its target T1, mPGES-1 (Homo sapiens, UniProt O14684).
T1 construct: microsomal preparations of IL-1β-stimulated A549 cells, a rich source of mPGES-1; endogenous in cells; host or cells: A549 cells, IL-1β-stimulated, microsomal fraction
T1 sequence (O14684 1-152): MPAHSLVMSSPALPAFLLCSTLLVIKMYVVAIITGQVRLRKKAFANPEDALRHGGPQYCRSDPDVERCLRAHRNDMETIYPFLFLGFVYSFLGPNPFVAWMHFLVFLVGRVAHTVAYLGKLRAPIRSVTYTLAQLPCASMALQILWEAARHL
Put plainly: PGE2 synthase activity in microsomes of IL-1β-stimulated A549 cells. The class given is biochemical. Conditions: for IC50: 15 min pre-incubation at 4°C, 20 μM PGH2, 1 min, read-out: IC50 of PGE2 formation (mPGES-1 activity).

The subject of experiment [7] is 12-HHT formation (mainly derived from platelet COX-1) in human whole blood. In words: 12-HHT formation in human whole blood (A23187 plus AA). Conditions: indomethacin 20 μM, aspirin 30 μM. The format is cell-based.
Setting [8] is: Hyp 4 mg kg^−1 i.p., indomethacin 5 mg kg^−1.
[9] abbreviates: i.p. 30 min before, Hyperforin 4 mg kg^−1, Indomethacin 5 mg kg^−1.

As usually defined, the EC50 is the concentration needed to bring the measured effect to its halfway point. As for `CC(C)=CCCC1(C)C(CC=C(C)C)CC2(CC=C(C)C)C(=O)C1(C(=O)C(C)C)C(=O)C(CC=C(C)C)=C2O` (centres unmarked) [Hyp, Hyperforin], the EC50 is 1000 to 3000 nM in the experiment with COX-2 expression, 1000 to 3000 nM in the experiment with mPGES-1 expression, about 3000 nM in experiment [1] and about 3000 nM in the experiment on A549 cells. The figures for the “inhibition of edema formation from areas under the curves (2-6 h)” value in experiment [2] (0.25 mg kg^−1 i.p.), in experiment [2] (1 mg kg^−1 i.p.) and in experiment [2] (4 mg kg^−1 i.p.) were 27 % of control, 49 % of control and 76 % of control, respectively. Besides, the “reduction of peak paw edema response at 4 h” value came out at 35% in [2] (0.25 mg kg^−1 i.p. 30 min before carrageenan), 63% in experiment [2] (1 mg kg^−1 i.p. 30 min before carrageenan) and 78% in [2] (4 mg kg^−1 i.p. 30 min before carrageenan). In experiment [2], the “ED50 paw edema formation” value turned out to be 1 mg/kg. Moreover, in [3] (setting [8]), the “attenuation of exudate formation” value is 64%. This compound also showed a PGE2 in exudate in experiment [3] (setting [9]) of 0.97 ± 0.15 ng/rat. The Inflammatory cells in experiment [3] (setting [9]) is given as 51.3 ± 7.2 ×10^6. The values for the IC50 at 5-lipoxygenase (5-LO), in the experiment with COX-1 and in the experiment with COX-2 were 1000 to 2000 nM, 3000 nM and over 30000 nM, respectively.
In the case of `Clc1ccccc1-c1nc2c3ccccc3c3ccccc3c2[nH]1` [MD-52, 2-(2-chlorophenyl)-1H-phenanthro[9,10-d]-imidazole], the “effect on PGE2 formation” value in experiment [4] is recorded as “only partially inhibited”. In addition, the “effect on 6-keto PGF1α formation” value in [5] is “failed to suppress”. Further, the “effect on TXB2 formation” value in experiment [6] is “failed to suppress”.
`CC(C)c1ccc2c(c1)c(SC(C)(C)C)c(CC(C)(C)C(=O)O)n2Cc1ccc(Cl)cc1` [MK-886]: the “effect on PGE2 formation” value in experiment [4] is reported as “only partially inhibited”. Also, the “effect on 6-keto PGF1α formation” value in experiment [5] is listed as “failed to suppress”. Moreover, in experiment [6], the “effect on TXB2 formation” value is given as “failed to suppress”.
On to `Cc1c(O)cc(O)c(C(=O)C(C)C)c1O` [acylphloroglucinol core], for which the IC50 at mPGES-1 was over 10000 nM.
As to `CC(=O)Oc1ccccc1C(=O)O` [aspirin], the “effect on 12-HHT formation” value in [7] is listed as “almost completely blocked”.
As to `Cc1ccc(-c2cc(C(F)(F)F)nn2-c2ccc(S(N)(=O)=O)cc2)cc1` [celecoxib], in experiment [4], the “effect on PGE2 formation” value was “effectively reduced”.
Regarding `CC(C)=CCC1C(=O)C(C(=O)CC(C)C)=C(O)C(O)(CC=C(C)C)C1=O` (centres unmarked) [humulone], the IC50 at mPGES-1 was over 10000 nM.
For `COc1ccc2c(c1)c(CC(=O)O)c(C)n2C(=O)c1ccc(Cl)cc1` [indomethacin], the “effect on PGE2 formation” value in experiment [4] is “effectively reduced”. Also, in [7], the “effect on 12-HHT formation” value is “almost completely blocked”. Besides, the “inhibition of edema formation from areas under the curves (2-6 h)” value in experiment [2] (5 mg kg^−1 i.p.) is recorded as 52 % of control. The “reduction of peak paw edema response at 4 h” value in experiment [2] (5 mg kg^−1 i.p. 30 min before carrageenan) came out at 57%. The “ED50 paw edema formation” value in experiment [2] was 5 mg/kg. Besides, in experiment [3] (setting [8]), the “attenuation of cell infiltration” value is 65% and the “attenuation of exudate formation” value stood at 75%. Further, the Exudate volume in experiment [3] (i.p. 30 min before, Hyperforin 4 mg kg^−1, Indomethacin 5 mg kg^−1, vehicle 0.44 ± 0.04) was 0.11 ± 0.04 mL. In [3] (setting [9]), the PGE2 in exudate is given as 0.19 ± 0.05 ng/rat and the Inflammatory cells is reported as 35.8 ± 4.2 ×10^6.
Turning to `CC(C)CCC[C@]1(C)[C@@H](CCC(C)C)C[C@@]2(CCC(C)C)C(=O)[C@]1(C(=O)C(C)C)C(=O)C(CCC(C)C)=C2O` [octahydro-hyperforin], the “mPGES-1 inhibition compared with Hyp” value at mPGES-1 (20 μM PGH2) was “equally effective”.
